Counter-ions that a name gives are not always drawn.
system: leukotriene pathway in human whole blood (LTB4 levels); test: Human whole blood assay (A23187-stimulated LTB4); type: cell-based; details: Homo sapiens, human whole blood diluted 1:1, A23187-stimulated; read-out: LTB4 IC50 1:1
Method: The ability of the compounds of the present invention to treat a FLAP-mediated disease and/or disorder, or associated symptoms or complications thereof, was determined using the following procedures. Binding assay data represent the average value obtained from two different assay plates, with samples run in duplicate on each plate. Human whole blood assay data represent a single replicate on an assay plate using whole blood from at least one healthy donor.
An in vitro cellular assay was performed using human whole blood collected in heparin-containing tubes, which was used to test the ability of compounds to modulate the leukotriene pathway in human whole blood. The blood was diluted 1:1 in RPMI medium, pre-incubated for 15 min at 37° Celsius with test compounds at various concentrations, and then stimulated with calcium ionophore, A23187 (7 μg/mL), for 30 min at 37° Celsius. The samples were then centrifuged and plasma was removed. The plasma was diluted in assay buffer and LTB4 levels were measured using a commercial kit (Enzo Life Sciences). The concentration of each compound that was required for half-maximal inhibition (modulation) of recombinant enzyme activity (IC50) was calculated by a 4-parameter equation using the program GraphPad Prism (GraphPad software).

IC50	Structure (SMILES)
729 nM	Fc1cc(-c2cccnc2OCC2CC2)ccc1-c1cnc2[nH]ccc2n1 [Example 400, 2-{4-[2-(Cyclopropylmethoxy)pyridin-3-yl]-2-fluorophenyl}-5H-pyrrolo[2,3-b]pyrazine]
389 nM	Nc1cnc(-c2ccc(-c3cccnc3OC3CCCCC3)cc2F)cn1 [Example 403, 5-{4-[2-(Cyclohexyloxy)pyridin-3-yl]-2-fluorophenyl}pyrazin-2-amine]
448 nM	N#Cc1nc(-c2ccc(-c3ccccc3S(=O)(=O)NCCO)cc2F)cnc1N [Example 413, 4′-(5-Amino-6-cyanopyrazin-2-yl)-3′-fluoro-N-(2-hydroxyethyl)biphenyl-2-sulfonamide]
120 nM	N#Cc1nc(-c2ccc(-c3ccccc3S(=O)(=O)N3CCNC(=O)C3)cc2F)cnc1N [Example 414, 3-Amino-6-{3-fluoro-2′-[(3-oxopiperazin-1-yl)sulfonyl]biphenyl-4-yl}pyrazine-2-carbonitrile]
> 10000 nM	CC(C)(C)NS(=O)(=O)c1ccccc1-c1ccc(-c2ccc3[nH]ccc3c2)c(F)c1 [Example 421, N-tert-Butyl-3′-fluoro-4′-(1H-indol-5-yl)biphenyl-2-sulfonamide]
59 nM	CC(C)(C)NS(=O)(=O)c1ccccc1-c1ccc(-c2cnc(N)c(F)c2)c(F)c1 [Example 430, 4′-(6-Amino-5-fluoropyridin-3-yl)-N-tert-butyl-3′-fluorobiphenyl-2-sulfonamide]
1370 nM	Cc1nc(-c2ccc(-c3ccccc3S(N)(=O)=O)cc2F)cnc1N [Example 446, 4′-(5-Amino-6-methylpyrazin-2-yl)-3′-fluorobiphenyl-2-sulfonamide]
53 nM	CC(C)(C)NS(=O)(=O)c1ccccc1-c1ccc(-c2cc(N)c3[nH]ccc3c2)c(F)c1 [Example 458, 4′-(7-Amino-1H-indol-5-yl)-N-tert-butyl-3′-fluorobiphenyl-2-sulfonamide]
> 10000 nM	Nc1cnc(-c2ccc(-c3ccccc3S(N)(=O)=O)c(F)c2F)cn1 [Example 464, 4′-(5-Aminopyrazin-2-yl)-2′,3′-difluorobiphenyl-2-sulfonamide]
990 nM	CC(C)(C)NS(=O)(=O)c1ccccc1-c1ccc(-c2cnc(N)nc2)c(F)c1F [Example 466, 4′-(2-Aminopyrimidin-5-yl)-N-tert-butyl-2′,3′-difluorobiphenyl-2-sulfonamide trifluoroacetic acid salt]
307 nM	CS(=O)(=O)c1cc(F)ccc1-c1ccc(-c2cnc3[nH]ccc3n2)c(F)c1 [Example 489, 2-[3,4′-Difluoro-2′-(methylsulfonyl)biphenyl-4-yl]-5H-pyrrolo[2,3-b]pyrazine]

same assay, conditions: Homo sapiens, human whole blood diluted 1:1 in RPMI, A23187-stimulated LTB4; read-out: LTB4 IC50 1:1

IC50	Structure (SMILES)
240 nM	Nc1cnc(-c2ccc(-c3ccccc3NS(=O)(=O)N3CCCC3)cc2F)cn1 [Example 181, N-[4′-(5-Aminopyrazin-2-yl)-3′-fluorobiphenyl-2-yl]pyrrolidine-1-sulfonamide]
21 nM	Nc1cnc(-c2ccc(-c3ccccc3S(=O)(=O)N3CC[C@H](O)C3)cc2F)cn1 [Example 184, (3S)-1-{[4′-(5-Aminopyrazin-2-yl)-3′-fluorobiphenyl-2-yl]sulfonyl}pyrrolidin-3-ol trifluoroacetic acid salt]
14 nM	CNS(=O)(=O)c1cc(C(F)(F)F)ccc1-c1ccc(-c2cnc(N)cn2)c(F)c1 [Example 208, 4′-(5-Aminopyrazin-2-yl)-3′-fluoro-N-methyl-4-(trifluoromethyl)biphenyl-2-sulfonamide]
20 nM	Nc1cnc(-c2ccc(-c3ccc(C(F)(F)F)cc3S(=O)(=O)NCCO)cc2F)cn1 [Example 210, 4′-(5-Aminopyrazin-2-yl)-3′-fluoro-N-(2-hydroxyethyl)-4-(trifluoromethyl)biphenyl-2-sulfonamide]
76 nM	CC(CO)(CO)NS(=O)(=O)c1ccccc1-c1ccc(-c2cnc(N)nc2)c(F)c1 [Example 255, 4′-(2-Aminopyrimidin-5-yl)-3′-fluoro-N-[2-hydroxy-1-(hydroxymethyl)-1-methylethyl]biphenyl-2-sulfonamide]
44 nM	Nc1ncc(-c2ccc(-c3ccccc3S(=O)(=O)N3CCN(C4CC4)CC3)cc2F)cn1 [Example 281, 5-{2′-[(4-Cyclopropylpiperazin-1-yl)sulfonyl]-3-fluorobiphenyl-4-yl}pyrimidin-2-amine trifluoroacetic acid salt]
1170 nM	Nc1ncc(-c2ccc(-c3ccccc3S(=O)(=O)N3CCCC3)cc2F)cn1 [Example 298, 5-[3-Fluoro-2′-(pyrrolidin-1-ylsulfonyl)biphenyl-4-yl]pyrimidin-2-amine trifluoroacetic acid salt]
178 nM	N#CC1CN(S(=O)(=O)c2ccccc2-c2ccc(-c3cnc(N)nc3)c(F)c2)C1 [Example 314, 1-((4′-(2-Aminopyrimidin-5-yl)-3′-fluoro-[1,1′-biphenyl]-2-yl)sulfonyl)azetidine-3-carbonitrile]
8490 nM	Nc1ncc(-c2ccc(-c3ccccc3S(=O)(=O)Cc3nc(C4CC4)no3)cc2F)cn1 [Example 321, 5-(2′-{[(3-Cyclopropyl-1,2,4-oxadiazol-5-yl)methyl]sulfonyl}-3-fluorobiphenyl-4-yl)pyrimidin-2-amine]
1130 nM	CC(C)(C)OC(=O)N1CC(O)(CNS(=O)(=O)c2ccccc2-c2ccc(-c3ccc(N)nc3)c(F)c2)C1 [Example 357, tert-Butyl 3-((4′-(6-aminopyridin-3-yl)-3′-fluoro-[1,1′-biphenyl]-2-ylsulfonamido)methyl)-3-hydroxyazetidine-1-carboxylate]
178 nM	NS(=O)(=O)c1ccccc1-c1ccc(-c2cnc3[nH]ccc3c2)c(F)c1 [Example 368, 3′-Fluoro-4′-(1H-pyrrolo[2,3-b]pyridin-5-yl)biphenyl-2-sulfonamide]
11 nM	O=S1(=O)CCN(S(=O)(=O)c2ccccc2-c2ccc(-c3cnc4[nH]ccc4n3)c(F)c2)CC1 [Example 382, 2-{2′-[(1,1-Dioxidothiomorpholin-4-yl)sulfonyl]-3-fluorobiphenyl-4-yl}-5H-pyrrolo[2,3-b]pyrazine]
1630 nM	CSc1ccc(F)cc1-c1ccc(-c2cnc3[nH]ccc3n2)c(F)c1 [Example 383, 2-[3,5′-Difluoro-2′-(methylsulfanyl)biphenyl-4-yl]-5H-pyrrolo[2,3-b]pyrazine]
82 nM	CCSc1ccccc1-c1ccc(-c2cnc3[nH]ccc3n2)c(F)c1 [Example 384, 2-[2′-(Ethylsulfanyl)-3-fluorobiphenyl-4-yl]-5H-pyrrolo[2,3-b]pyrazine]
137 nM	NC1CCN(S(=O)(=O)c2ccccc2-c2ccc(-c3cnc4c(c3)OCCN4)c(F)c2)CC1 [Example 389, 1-{[4′-(3,4-Dihydro-2H-pyrido[3,2-b][1,4]oxazin-7-yl)-3′-fluorobiphenyl-2-yl]sulfonyl}piperidin-4-amine]
10 nM	C[C@H](CO)NS(=O)(=O)c1ccccc1-c1ccc(-c2cnc3c(c2)OCCN3)c(F)c1 [Example 390, 4′-(3,4-Dihydro-2H-pyrido[3,2-b][1,4]oxazin-7-yl)-3′-fluoro-N-[(1R)-2-hydroxy-1-methylethyl]biphenyl-2-sulfonamide]

same assay, conditions: Homo sapiens, read-out: LTB4 IC50 1:1

Structure (SMILES)	IC50
C[Si](C)(C)CCOCS(=O)(=O)c1ccccc1-c1ccc(-c2cnc(N)nc2)c(F)c1 [Example 338, 5-[3-Fluoro-2′-({[2-(trimethylsilyl)ethoxy]methyl}sulfonyl)biphenyl-4-yl]pyrimidin-2-amine formate salt]	1090 nM
